We go through 28 compounds from patent publication US10745384B2, “Indazole derivatives as αv integrin antagonists” (BRISTOL-MYERS SQUIBB COMPANY, priority 2016, dated 2020).

Where a name gives a salt, the structure may show the parent alone.

As a reminder, the IC50 is the concentration at which inhibition is half-maximal.

The assay has as its target T1, human αVβ6 (Homo sapiens, UniProt P06756+P18564).
T1 construct: purchased R & D systems 3817-AV
The experiment in a line: human αVβ6 HTRF binding assay. Conditions: recombinant human αVβ6 integrin, FITC-conjugated fibronectin. As for the experimental part:
All binding assays used the HTRF (homogeneous time resolved fluorescence) technology from Cisbio International, therefore all assays are described as HTRF binding assays. The assay results for the Examples are listed above together with the characterization data. The HTRF binding assays are established for the following integrins: human αVβ6, human αVβ1, human αVβ3, human αVβ5, and human αVβ8. All assays used the following assay buffer: 20 mM Tris, pH 7.4, 1 mM MgCl2, 1 mM MnCl2, 0.01% Tween 20, and 0.01% BSA. Alternatively, a SPA-based assay was used for evaluation of receptor binding.
The following describes the components and a representative procedure for the human αVβ6 HTRF binding assay: Recombinant human αVβ6 Integrin (R & D systems, 3817-AV) was biotinylated. Biotinylated human αVβ6 Integrin was added to assay vessel at a final concentration of 1.25 nM. FITC-conjugated fibronectin (Cytoskeleton, FNR02) was then added at the final concentration of 5 nM. The mixture was centrifuged at 600 rpm for three minutes using Thermo Fisher Heraeus Multifuge X3 centrifuge and then incubated at room temperature for an hour. Streptavidin Terbium (Cisbio international 610STLB) was then added at the final concentration of 0.625 nM. The resulting mixture was centrifuged at 600 rpm for three minutes using Thermo Fisher Heraeus Multifuge X3 centrifuge and then incubated at room temperature overnight in dark before reading HTRF signals. […]
For orientation: TR-FRET usually uses a lanthanide donor and a delayed reading to cut background.

T1 sequence (P06756 31-992 limits assumed): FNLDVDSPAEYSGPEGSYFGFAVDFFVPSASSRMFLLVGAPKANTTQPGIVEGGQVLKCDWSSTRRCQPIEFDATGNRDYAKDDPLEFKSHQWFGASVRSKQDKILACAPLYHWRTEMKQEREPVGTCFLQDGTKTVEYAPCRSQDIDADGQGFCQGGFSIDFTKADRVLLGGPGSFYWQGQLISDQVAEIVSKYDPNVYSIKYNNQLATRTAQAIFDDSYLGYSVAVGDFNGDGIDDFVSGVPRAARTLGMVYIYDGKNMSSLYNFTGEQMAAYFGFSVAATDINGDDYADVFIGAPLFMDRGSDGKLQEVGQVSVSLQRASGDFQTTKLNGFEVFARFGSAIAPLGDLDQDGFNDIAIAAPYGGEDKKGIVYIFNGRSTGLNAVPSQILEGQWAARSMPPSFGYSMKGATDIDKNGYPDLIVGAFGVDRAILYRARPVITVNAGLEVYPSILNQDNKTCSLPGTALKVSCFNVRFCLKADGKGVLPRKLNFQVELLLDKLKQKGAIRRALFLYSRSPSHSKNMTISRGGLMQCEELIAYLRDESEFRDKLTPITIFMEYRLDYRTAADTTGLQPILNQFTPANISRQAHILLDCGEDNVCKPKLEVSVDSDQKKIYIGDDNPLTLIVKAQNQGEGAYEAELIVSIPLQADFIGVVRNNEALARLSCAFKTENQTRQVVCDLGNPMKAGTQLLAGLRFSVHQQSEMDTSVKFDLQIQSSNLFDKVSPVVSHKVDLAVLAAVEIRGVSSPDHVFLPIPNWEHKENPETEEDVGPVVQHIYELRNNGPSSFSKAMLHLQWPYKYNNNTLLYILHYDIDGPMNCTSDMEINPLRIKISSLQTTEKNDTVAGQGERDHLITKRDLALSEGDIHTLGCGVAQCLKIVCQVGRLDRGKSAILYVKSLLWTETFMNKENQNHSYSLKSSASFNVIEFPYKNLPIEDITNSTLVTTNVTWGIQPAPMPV
T1 sequence (P18564 22-707 limits assumed): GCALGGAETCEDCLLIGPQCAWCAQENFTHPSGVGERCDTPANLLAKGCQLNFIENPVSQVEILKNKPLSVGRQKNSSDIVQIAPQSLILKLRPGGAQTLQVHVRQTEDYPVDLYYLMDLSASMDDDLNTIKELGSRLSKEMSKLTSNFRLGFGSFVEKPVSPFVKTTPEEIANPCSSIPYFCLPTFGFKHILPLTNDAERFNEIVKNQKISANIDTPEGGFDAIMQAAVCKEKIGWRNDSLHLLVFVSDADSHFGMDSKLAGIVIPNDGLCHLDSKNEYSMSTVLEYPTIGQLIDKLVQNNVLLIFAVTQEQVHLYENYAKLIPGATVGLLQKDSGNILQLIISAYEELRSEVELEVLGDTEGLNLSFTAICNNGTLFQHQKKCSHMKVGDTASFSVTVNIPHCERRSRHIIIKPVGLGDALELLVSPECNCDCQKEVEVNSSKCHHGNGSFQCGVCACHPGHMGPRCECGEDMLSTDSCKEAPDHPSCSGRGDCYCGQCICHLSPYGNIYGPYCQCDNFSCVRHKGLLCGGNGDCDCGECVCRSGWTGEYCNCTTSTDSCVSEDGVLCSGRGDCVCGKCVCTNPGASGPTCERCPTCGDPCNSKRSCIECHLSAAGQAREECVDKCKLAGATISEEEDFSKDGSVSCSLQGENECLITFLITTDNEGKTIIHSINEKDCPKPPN

Turning to `Cc1nc2cc(C(CC(=O)O)n3ncc4cc(OCCc5ccc6c(n5)NCCC6)ccc43)ccc2s1` (stereo not shown) [Example 56, 3-(2-Methylbenzo[d]thiazol-5-yl)-3-(5-(2-(5,6,7,8-tetrahydro-1,8-naphthyridin-2-yl)ethoxy)-1H-indazol-1-yl)propanoic acid, TFA], the half-maximal inhibitory concentration (IC50) is 4.1 nM. The result for `O=C(O)CC(c1ccc(Oc2ccccc2)cc1)n1ncc2cc(OCCc3ccc4c(n3)NCCC4)ccc21` (stereo not shown) [Example 57, 3-(4-Phenoxyphenyl)-3-(5-(2-(5,6,7,8-tetrahydro-1,8-naphthyridin-2-yl)ethoxy)-1H-indazol-1-yl)propanoic acid, TFA] reads 11 nM. The result for `O=C(O)CC(c1cccc(N2CCOCC2)c1)n1ncc2cc(OCCc3ccc4c(n3)NCCC4)ccc21` (stereo not shown) [Example 58, 3-(3-Morpholinophenyl)-3-(5-(2-(5,6,7,8-tetrahydro-1,8-naphthyridin-2-yl)ethoxy)-1H-indazol-1-yl)propanoic acid, TFA] reads 1.7 nM; that for `O=C(O)CC(c1cccc(-n2cccc2)c1)n1ncc2cc(OCCc3ccc4c(n3)NCCC4)ccc21` (stereo not shown) [Example 59, 3-(3-(1H-Pyrrol-1-yl)phenyl)-3-(5-(2-(5,6,7,8-tetrahydro-1,8-naphthyridin-2-yl)ethoxy)-1H-indazol-1-yl)propanoic acid, TFA], 1.2 nM; that for `CN(C)Cc1cccc(C(CC(=O)O)n2ncc3cc(OCCc4ccc5c(n4)NCCC5)ccc32)c1` (stereo not shown) [Example 60, 3-(3-((Dimethylamino)methyl)phenyl)-3-(5-(2-(5,6,7,8-tetrahydro-1,8-naphthyridin-2-yl)ethoxy)-1H-indazol-1-yl)propanoic acid, TFA], 5.1 nM. The result for `O=C(O)CC(c1ccccn1)n1ncc2cc(OCCc3ccc4c(n3)NCCC4)ccc21` (stereo not shown) [Example 61, 3-(Pyridin-2-yl)-3-(5-(2-(5,6,7,8-tetrahydro-1,8-naphthyridin-2-yl)ethoxy)-1H-indazol-1-yl)propanoic acid, TFA] reads 80 nM; that for `O=C(O)CC(c1cccc(N2CCCC2=O)c1)n1ncc2cc(OCCc3ccc4c(n3)NCCC4)ccc21` (stereo not shown) [Example 62, 3-(3-(2-Oxopyrrolidin-1-yl)phenyl)-3-(5-(2-(5,6,7,8-tetrahydro-1,8-naphthyridin-2-yl)ethoxy)-1H-indazol-1-yl)propanoic acid, TFA], 37 nM; that for `CCCn1cc(C(CC(=O)O)n2ncc3cc(OCCc4ccc5c(n4)NCCC5)ccc32)cn1` (stereo not shown) [Example 63, 3-(1-Propylpyrazol-4-yl)-3-(5-(2-(5,6,7,8-tetrahydro-1,8-naphthyridin-2-yl)ethoxy)-1H-indazol-1-yl)propanoic acid, TFA], 55 nM. On to `COc1ccc([C@H](CC(=O)O)n2cc3cc(CCc4ccc5c(n4)NCCC5)ccc3n2)cn1` [Example 64, (S)-3-(6-Methoxypyridin-3-yl)-3-(5-(2-(5,6,7,8-tetrahydro-1,8-naphthyridin-2-yl)ethyl)-2H-indazol-2-yl)propanoic acid], for which the IC50 came out at 19 nM. In the case of `COc1ccc([C@H](CC(=O)O)n2cc3cc(CCCc4ccc5c(n4)NCCC5)ccc3n2)cn1` [Example 67, (S)-3-(6-Methoxypyridin-3-yl)-3-(5-(3-(5,6,7,8-tetrahydro-1,8-naphthyridin-2-yl)propyl)-2H-indazol-2-yl)propanoic acid], the IC50 worked out at 740 nM.

For `Cc1cc(C)n(-c2cccc(C(CC(=O)O)n3ncc4cc(OCCc5ccc6c(n5)NCCC6)ccc43)c2)n1` (stereo not shown) [Example 68, 3-(3-(3,5-Dimethylpyrazol-1-yl)phenyl)-3-(5-(2-(5,6,7,8-tetrahydro-1,8-naphthyridin-2-yl)ethoxy)-1H-indazol-1-yl)propanoic acid, TFA], the IC50 was found to be 1.5 nM. The value for `O=C(O)CC(Cc1ccc(OCc2ccccc2)cc1)n1ncc2cc(OCCc3ccc4c(n3)NCCC4)ccc21` (stereo not shown) [Example 69, 4-(4-(Benzyloxy)phenyl)-3-(5-(2-(5,6,7,8-tetrahydro-1,8-naphthyridin-2-yl)ethoxy)-1H-indazol-1-yl)butanoic acid, TFA] was 400 nM; that for `COc1ccc(C(CC(=O)O)n2nc(C)c3cc(OCCc4ccc5c(n4)NCCC5)ccc32)cn1` (stereo not shown) [Example 70, 3-(6-Methoxypyridin-3-yl)-3-(3-methyl-5-(2-(5,6,7,8-tetrahydro-1,8-naphthyridin-2-yl)ethoxy)-1H-indazol-1-yl)propanoic acid] was 953 nM. For the compound `Cn1ccc(C(CC(=O)O)n2ncc3cc(OCCc4ccc5c(n4)NCCC5)ccc32)cc1=O` (stereo not shown) [Example 71, 3-(1-Methyl-2-oxo-1,2-dihydropyridin-4-yl)-3-(5-(2-(5,6,7,8-tetrahydro-1,8-naphthyridin-2-yl)ethoxy)-1H-indazol-1-yl)propanoic acid, TFA], the IC50 was 64 nM. `O=C(O)C(CCc1ccccc1)Cn1ncc2cc(OCCc3ccc4c(n3)NCCC4)ccc21` (stereo not shown) [Example 73, 4-Phenyl-2-((5-(2-(5,6,7,8-tetrahydro-1,8-naphthyridin-2-yl)ethoxy)-1H-indazol-1-yl)methyl)butanoic acid]: the 50% inhibitory concentration (IC50) amounted to 1800 nM. The result for `CC(C)(C)OC(=O)N1CCC(C(CC(=O)O)n2ncc3cc(OCCc4ccc5c(n4)NCCC5)ccc32)CC1` (stereo not shown) [Example 74, 3-(1-(tert-Butoxycarbonyl)piperidin-4-yl)-3-(5-(2-(5,6,7,8-tetrahydro-1,8-naphthyridin-2-yl)ethoxy)-1H-indazol-1-yl)propanoic acid] reads 260 nM.

In the case of `O=C(O)CC(c1ccncc1)n1ncc2cc(OCCc3ccc4c(n3)NCCC4)ccc21` (stereo not shown) [Example 75, 3-(Pyridin-4-yl)-3-(5-(2-(5,6,7,8-tetrahydro-1,8-naphthyridin-2-yl)ethoxy)-1H-indazol-1-yl)propanoic acid, 2 TFA], the IC50 amounted to 23 nM. The result for `O=C(O)CC1(n2ncc3cc(OCCc4ccc5c(n4)NCCC5)ccc32)CC1` [Example 76, 2-(1-(5-(2-(5,6,7,8-tetrahydro-1,8-naphthyridin-2-yl)elhoxy)-1H-indazol-1-yl)cyclopropyl)acetic acid, TFA] reads 3400 nM; that for `O=C(O)CC(Cc1ccc(F)cc1)n1ncc2cc(OCCc3ccc4c(n3)NCCC4)ccc21` (stereo not shown) [Example 78, 4-(4-Fluorophenyl)-3-(5-(2-(5,6,7,8-tetrahydro-1,8-naphthyridin-2-yl)ethoxy)-1H-indazol-1-yl)butanoic acid, TFA], 804 nM; that for `COc1cnc(C(CC(=O)O)n2ncc3cc(OCCc4ccc5c(n4)NCCC5)ccc32)cn1` (stereo not shown) [Example 79, 3-(5-Methoxypyrazin-2-yl)-3-(5-(2-(5,6,7,8-tetrahydro-1,8-naphthyridin-2-yl)ethoxy)-1H-indazol-1-yl)propanoic acid, TFA], 33 nM.

Turning to `O=C(O)CC(c1ccc2nccnc2c1)n1ncc2cc(OCCc3ccc4c(n3)NCCC4)ccc21` (stereo not shown) [Example 80, 3-(Quinoxalin-6-yl)-3-(5-(2-(5,6,7,8-tetrahydro-1,8-naphthyridin-2-yl)ethoxy)-1H-indazol-1-yl)propanoic acid, TFA], the IC50 was determined as 13 nM. The result for `O=C(O)C[C@@H](c1cnc2ccccc2c1)n1cc2ccc(CCc3ccc4c(n3)NCCC4)cc2n1` [Example 81, (S)-3-(Quinolin-3-yl)-3-(6-(2-(5,6,7,8-tetrahydro-1,8-naphthyridin-2-yl)ethyl)-2H-indazol-2-yl)propanoic acid] reads 3.2 nM. The value for `Cc1nc2c(cc1Cc1ccc3cn([C@@H](CC(=O)O)c4cnc5ccccc5c4)nc3c1)CCCN2` [Example 82, (S)-3-(6-((2-Methyl-5,6,7,8-tetrahydro-1,8-naphthyridin-3-yl)methyl)-2H-indazol-2-yl)-3-(quinolin-3-yl)propanoic acid] was 150 nM; that for `O=C(O)C[C@@H](c1cccc(N2CCCC2=O)c1)n1ncc2cc(OCCc3ccc4c(n3)NCCC4)ccc21` [Example 84, (S)-3-(3-(2-Oxopyrrolidin-1-yl)phenyl)-3-(5-(2-(5,6,7,8-tetrahydro-1,8-naphthyridin-2-yl)ethoxy)-1H-indazol-1-yl)propanoic acid, TFA] was 120 nM; that for `O=C(O)C[C@H](c1cccc(N2CCCC2=O)c1)n1ncc2cc(OCCc3ccc4c(n3)NCCC4)ccc21` [Example 85, (R)-3-(3-(2-Oxopyrrolidin-1-yl)phenyl)-3-(5-(2-(5,6,7,8-tetrahydro-1,8-naphthyridin-2-yl)ethoxy)-1H-indazol-1-yl)propanoic acid, TFA] was 2.5 nM.

Take `COc1ncc(C(CC(=O)O)n2ncc3cc(OCCc4ccc5c(n4)NCCC5)ccc32)cc1F` (stereo not shown) [Example 86, 3-(5-Fluoro-6-methoxypyridin-3-yl)-3-(5-(2-(5,6,7,8-tetrahydro-1,8-naphthyridin-2-yl)ethoxy)-1H-indazol-1-yl)propanoic acid, TFA]: the IC50 worked out at 7.8 nM. The value for `O=C(O)C[C@@H](c1cnc2ccccc2c1)n1cc2ccc(CCCC3CCc4cccnc4N3)cc2n1` (stereo partly drawn) [Example 88, (3S)-3-(Quinolin-3-yl)-3-(6-(3-(1,2,3,4-tetrahydro-1,8-naphthyridin-2-yl)propyl)-2H-indazol-2-yl)propanoic acid] was 20 nM. The value for `Cc1cc(C(CC(=O)O)n2ncc3cc(OCCc4ccc5c(n4)NCCC5)ccc32)cnc1OCC(C)(C)O` (stereo not shown) [Example 90, 3-(6-(2-Hydroxy-2-methylpropoxy)-5-methylpyridin-3-yl)-3-(5-(2-(5,6,7,8-tetrahydro-1,8-naphthyridin-2-yl)ethoxy)-1H-indazol-1-yl)propanoic acid, TFA] was 9.5 nM.
